According to patent US11731943B2, “Therapeutic compounds, compositions and methods of use thereof” (priority 2016, dated 2023):
Where two headings read alike, the source gives them in different places.

Key:
[1] = molecular target: isolated recombinant JAK1 kinase domain (Homo sapiens (Human), UniProt P23458); assay: JAK1 enzyme assay (Caliper LabChip, Ki); format: biochemical
In short: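 Ki derived via Morrison tight-binding model, ATP-competitive correction applied. Read-out: product/total ratio of a 5-carboxyfluorescein-tagged JAK3 peptide separated on Caliper LabChip after phosphorylation by isolated human JAK1 kinase domain (22 °C, 30 min; EDTA quench, 50 mM final).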

[2] = molecular target: isolated recombinant JAK2 kinase domain (Homo sapiens (Human), UniProt O60674); assay: JAK2 enzyme assay (Caliper LabChip, Ki); format: biochemical
Chain of isolated recombinant JAK2 kinase domain (O60674 849-1124): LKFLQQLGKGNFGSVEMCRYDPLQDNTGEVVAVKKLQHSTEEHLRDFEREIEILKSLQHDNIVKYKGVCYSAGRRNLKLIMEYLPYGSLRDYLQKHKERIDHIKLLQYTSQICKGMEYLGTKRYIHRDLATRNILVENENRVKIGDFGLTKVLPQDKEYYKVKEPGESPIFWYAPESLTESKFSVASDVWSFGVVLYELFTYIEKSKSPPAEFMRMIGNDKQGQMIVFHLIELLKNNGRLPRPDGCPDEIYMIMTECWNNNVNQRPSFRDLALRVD
In short: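 Caliper LabChip readout of phosphorylated product as a fraction of total substrate, a fluorescently N-terminally labelled JAK3-derived peptide. Isolated human JAK kinase domains were incubated 30 min at 22 °C before EDTA quench (50 mM final).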

[3] = system: JAK1-dependent STAT6 phosphorylation downstream of IL-13 stimulation in BEAS-2B human bronchial epithelial cells; assay: JAK1 pathway assay in BEAS-2B cells (IL-13-pSTAT6, MSD); format: cell-based; conditions: BEAS-2B cells, IL-13 stimulation, read-out: IL-13 p-STAT6 BEAS-2B IC50
Protocol: JAK1 Pathway Assay in Cell Lines was carried out as follows:
Inhibitor potency (EC50) was determined in cell-based assays designed to measure JAK1 dependent STAT phosphorylation.
In one assay approach, TF-1 human erythroleukemia cells obtained from the American Type Culture Collection (ATCC; Manassas, Va.) were used to measure JAK1-dependent STAT6 phosphorylation downstream of IL-13 stimulation. Prior to use in the assays, TF-1 cells were starved of GM-CSF overnight in OptiMEM medium (Life Technologies, Grand Island, N.Y.) supplemented with 0.5% charcoal/dextran stripped fetal bovine serum (FBS), 0.1 mM non-essential amino acids (NEAA), and 1 mM sodium pyruvate. The assays were run in 384-well plates in serum-free OptiMEM medium using 300,000 cells per well. In a second assay approach, BEAS-2B human bronchial epithelial cells obtained from ATCC were plated at 100,000 cells per well of a 96-well plate one day prior to the experiment. The BEAS-2B assay was run in complete growth medium (bronchial epithelial basal medium plus bulletkit; Lonza; Basel, Switzerland).
Test compounds were serially diluted 1:2 in DMSO and then diluted 1:50 in medium just before use. Diluted compounds were added to the cells, for a final DMSO concentration of 0.2%, and incubated for 30 min (for the TF-1 assay) or 1 hr (for the BEAS-2B assay) at 37° C. Then, cells were stimulated with human recombinant cytokine at their respective EC90 concentrations, as previously determined for each individual lot. Cells were stimulated with IL-13 (R&D Systems, Minneapolis, Minn.) for 15 min at 37° C. The TF-1 cell reactions were stopped by the direct addition of 10× lysis buffer (Cell Signaling Technologies, Danvers, Mass.), whereas the BEAS-2B cell incubations were halted by the removal of medium and addition of 1× lysis buffer. The resultant samples were frozen in the plates at −80° C. Compound mediated inhibition of STATE phosphorylation was measured in the cell lysates using MesoScale Discovery (MSD) technology (Gaithersburg, Md.).

Chain of isolated recombinant JAK1 kinase domain (P23458 875-1153): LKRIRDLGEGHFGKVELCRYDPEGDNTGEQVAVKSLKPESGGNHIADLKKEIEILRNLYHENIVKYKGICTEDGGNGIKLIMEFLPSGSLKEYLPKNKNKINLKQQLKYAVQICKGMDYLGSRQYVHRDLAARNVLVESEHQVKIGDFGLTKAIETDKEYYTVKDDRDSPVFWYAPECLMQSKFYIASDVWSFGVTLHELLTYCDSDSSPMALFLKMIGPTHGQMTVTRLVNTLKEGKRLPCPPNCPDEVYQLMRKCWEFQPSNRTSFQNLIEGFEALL

SMILES: N#CCC1(n2cc(C(N)=O)c(NC(=O)C3CC3)n2)CCN(Cc2ccc(Cl)cc2)CC1 [Example 60]
- Ki ([1]; read-out: JAK1 Ki): 3.9 nM
- Ki [2]: 23.4 nM
- IC50 ([3]; Homo sapiens, BEAS-2B): 94 nM

SMILES: N#CCC1(n2cc(C(N)=O)c(NC(=O)C3CC3)n2)CCN(Cc2ccc(-c3ccccc3)nc2F)CC1F (centres unmarked) [Example 201, 1-[4-(cyanomethyl)-3-fluoro-1-[(2-fluoro-6-phenyl-3-pyridyl)methyl]-4-piperidyl]-3-(cyclopropanecarbonylamino) pyrazole-4-carboxamide]
- Ki ([1]; read-out: JAK1 Ki): 0.24 nM
- Ki [2]: 0.23 nM
- IC50 ([3]; Homo sapiens, BEAS-2B): 23 nM

SMILES: N#CCC1(n2cc(C(N)=O)c(NC(=O)C3CC3)n2)CCC(Oc2ccc(-c3ccccc3)cc2)CC1 (single isomer, unassigned) [Example 211, 1-(4-([1,1′-Biphenyl]-4-yloxy)-1-(cyanomethyl)cyclohexyl)-3-(cyclopropanecarboxamido)-1H-pyrazole-4-carboxamide]
- Ki ([1]; read-out: JAK1 Ki): 0.74 nM
- Ki [2]: 4.6 nM
- IC50 [3]: 26 nM

SMILES: COC(=O)Nc1nn(C2(CC#N)CCN(Cc3ccc(-n4nccn4)cc3)CC2)cc1C(N)=O [Example 197, methyl N-[4-carbamoyl-1-[4-(cyanomethyl)-1-[[4-(triazol-2-yl)phenyl]methyl]-4-piperidyl]pyrazol-3-yl]carbamate]
- Ki ([1]; read-out: JAK1 Ki): 1.2 nM
- Ki [2]: 22 nM
- IC50 ([3]; Homo sapiens, BEAS-2B): 65 nM

SMILES: C#Cc1ccc(NC2CCC(CC#N)(n3cc(C(N)=O)c(NC(=O)C4CC4)n3)CC2)cc1 (centres unmarked) [Example 279, 1-[1-(cyanomethyl)-4-(4-ethynylanilino)cyclohexyl]-3-(cyclopropanecarbonylamino) pyrazole-4-carboxamide]
- Ki ([1]; read-out: JAK1 Ki): 1.2 nM
- Ki [2]: 14 nM
- IC50 ([3]; Homo sapiens, BEAS-2B): 92 nM

SMILES: N#CCC1(n2cc(C(N)=O)c(NC(=O)C3CC3)n2)CCN(Cc2ccc(-n3nccn3)cc2)CC1 [Example 89]
- Ki ([1]; read-out: JAK1 Ki): 0.7 nM
- Ki [2]: 6.8 nM
- IC50 ([3]; Homo sapiens, BEAS-2B): 119 nM

SMILES: N#CCC1(n2cc(C(N)=O)c(NC(=O)C3CC3)n2)CCN(Cc2ccc(I)cc2)CC1 [Example 55]
- Ki ([1]; read-out: JAK1 Ki): 3.2 nM
- Ki [2]: 31.4 nM
- IC50 ([3]; Homo sapiens, BEAS-2B): 98 nM

SMILES: N#CCC1(n2cc(C(N)=O)c(NC(=O)C3CC3)n2)CCN(Cc2ccc(-c3csc(Cl)c3)nc2)CC1 [Example 16, 1-(1-((6-(5-Chlorothiophen-3-yl)pyridin-3-yl)methyl)-4-(cyanomethyl)piperidin-4-yl)-3-(cyclopropanecarboxamido)-1H-pyrazole-4-carboxamide]
- Ki ([1]; read-out: JAK1 Ki): 0.5 nM
- Ki [2]: 2.4 nM
- IC50 ([3]; Homo sapiens, BEAS-2B): 85 nM

SMILES: CCOC1(C(F)(F)F)CN([C@H]2CC[C@](CC#N)(n3cc(C(N)=O)c(NC(=O)C4CC4)n3)CC2)C1 (single isomer, unassigned) [Example 10]
- Ki ([1]; read-out: JAK1 Ki): > 562 nM
- Ki [2]: > 319 nM
- IC50 ([3]; Homo sapiens, BEAS-2B): > 1000 nM

SMILES: C#Cc1ccc(CN2CCC(CC#N)(n3cc(C(N)=O)c(NC(=O)OC)n3)C(F)C2)cc1 (centres unmarked) [Example 270, methyl N-[4-carbamoyl-1-[4-(cyanomethyl)-1-[(4-ethynylphenyl)methyl]-3-fluoro-4-piperidyl]pyrazol-3-yl]carbamate]
- Ki ([1]; read-out: JAK1 Ki): 0.41 nM
- Ki [2]: 0.9 nM
- IC50 ([3]; Homo sapiens, BEAS-2B): 21 nM

SMILES: N#CC[C@]1(n2cc(C(N)=O)c(NC(=O)C3CC3)n2)CC[C@@H](NCC(F)(F)F)CC1 (single isomer, unassigned) [Example 1]
- Ki [1]: > 562 nM
- Ki [2]: 252 nM
- IC50 ([3]; Homo sapiens, BEAS-2B): > 1000 nM

SMILES: COC(=O)Nc1nn(C2(CC#N)CCN(Cc3ccc(-n4nccn4)c(O)c3)CC2F)cc1C(N)=O (centres unmarked) [Example 287, methyl N-[4-carbamoyl-1-[4-(cyanomethyl)-3-fluoro-1-[[3-hydroxy-4-(triazol-2-yl)phenyl]methyl]-4-piperidyl]pyrazol-3-yl]carbamate]
- Ki ([1]; read-out: JAK1 Ki): 0.35 nM
- Ki [2]: 0.43 nM
- IC50 ([3]; Homo sapiens, BEAS-2B): 32 nM

SMILES: N#CCC1(n2cc(C(N)=O)c(NC(=O)C3CC3)n2)CCN(Cc2ccc(-c3ccccn3)cc2)CC1 [Example 185, 1-[4-(cyanomethyl)-1-[[4-(2-pyridyl)phenyl]methyl]-4-piperidyl]-3-(cyclopropanecarbonylamino) pyrazole-4-carboxamide]
- Ki ([1]; read-out: JAK1 Ki): 2.3 nM
- IC50 ([3]; Homo sapiens, BEAS-2B): 209 nM
